Test results reported in US7498029B2, “Photoimmunotherapies for cancer using combination therapies” (The General Hospital Corporation, priority 2001, dated 2009).
“Also recorded” adds a separate entry of the source.

Experiments:
NIH:OVCAR-5 cells [1] = test: Long term survival, intraperitoneal ovarian carcinoma xenograft; format: in vivo, mice
Source text: A different group of animals was utilized to investigate survivability. Animals with rapid tumor progression leading to uncontrollable ascites or systemic illness were sacrificed. Animals were sacrificed based on the following parameters: loss of more than 15% body weight, severe pain not relieved by analgesics, self-mutilating behavior, inability or unwillingness to eat or drink, and weight gain of more than 20% body weight. At the time of necropsy, samples were weighed and collected as previously described.

[2] = system: EGFR-overexpressing A-431 cells; test: Phototoxicity and competition studies, MTT assay; format: cell-based, human; details: incubation periods much shorter than 6 hours
Method: Preliminary phototoxicity studies were conducted using EGFR-overexpressing A-431 cells.
Cells were plated in 2 ml of media in 35 mm tissue culture dishes at densities such that the cells reached approximately 60 to 80% confluence at the end of a three-day growth period. Following an initial period of at least 14 to 20 hours, which allowed for cells to attach and begin dividing, incubation with PICs or free BPD was initiated by replacing the original 2 ml of media with 2 to 4 ml of medium containing PIC or free BPD. Incubations were done at 37° C. and were begun with respect to the end of the three-day growth period. At the end of the three-day growth period, the medium containing PIC or free BPD was removed. Cells were washed once with 2 ml of DPBS, and 2 ml of fresh medium was added back to each dish. Cells were then immediately irradiated with the requisite light dose. Following irradiation, cells were incubated overnight at 37° C. and then assayed for viability by the calorimetric MTT assay (Mosmann, 1983). Except for the intended light dose, care was taken to protect the cells from light exposure at all times.
The radiation source was a dye laser pumped by an argon ion laser (models CR-599 and Innova 100, respectively, Coherent Inc., Palo Alto, Calif.). […]

OVCAR-5 cells = test: PDT/PIT phototoxicity, MTT assay, OVCAR-5 cells; format: cell-based, human; details: with light, dose giving 50% survival after 24 hours, compared to control cells
Method: (§1) This light was focused to a spot of 3.5 cm diameter, which corresponded to a power density of circa 40 mW/cm^2.
(§2) To determine the survival fraction of cells after treatment, the 3-(4,5-dimethylthiazol-2-yl)-2,5-diphenyltetrazolium bromide (“MTT”) assay, which measured mitochondrial dehydrogenase activity, was used. Cells were incubated with 0.5 mg/ml MTT for 1 hour to measure its reduction by mitochondrial dehydrogenases.
The MTT assay was performed 24 and 72 hours after treatment.

CHO-ERBB2 cells = test: PDT/PIT phototoxicity, MTT assay, CHO-ERBB2 cells; format: cell-based; details: 140 nM, light dose of 2 J/cm^2, MTT 24 hours after illumination
Method: as §1, §2

MAPK/ERK = test: EGF-induced MAPK/ERK phosphorylation, Western blot in OVCAR-5 cells; format: cell-based, human
Method: (§3) Twenty-four hours after photodynamic treatment as described above, OVCAR 5 cells in the groups to be stimulated with EGF were incubated for 15 min with 10 ng/ml EGF in prewarmed culture medium. The groups that were not stimulated with EGF only received prewarmed culture medium. After the 15 minute incubation, cells were kept on ice and cell lysates were collected in RIPA buffer (containing 0.1% SDS and 1% NP-40). After protein determination by a modified Lowry assay (Biorad, Hercules, Calif.), the proteins were run on SDS-PAGE, transferred to a polyvinylidene diflouride (PVDF) membrane (Immobilon-P, Millipore, Bedford, Mass.) and probed with the first antibody. To detect the phosphorylation of the EGFR, the anti-phosphotyrosine antibody 4G10 (New England Biolabs; Beverly, Mass.) was used. A secondary goat anti-mouse antibody, coupled to horseradish peroxidase (Biorad), was used in combination with a chemiluminescence kit (Amersham, Arlington Heights, Ill.) to visualize the specific bands. Western blots were reprobed with anti-actin (Santa Cruz Biotechnology, Santa Cruz, Calif.) to control for equal loading.
(§4) Two important pathways which are regulated by EGFR are the PI3K-Akt/PKB-1 and the Ras-MAPK/ERK pathway. These signaling molecules are implicated in a variety oncogenic pathways. […]

[3] = Body weight loss of xenograft mice; format: in vivo; details: before tumor cell injection to day 21
Source text: Animals were weighed before tumor cell injection, and before sacrifice at day 21.

[4] = Fluorescence decay and relative fluorescence quantum yield; format: physicochemical; details: 50% DMSO/50% aqueous solution
Method: In order to assess how conjugation to the antibody affected the ability of BPD to generate phototoxic species, relative fluorescence quantum yields and fluorescence decay signals for free BPD and for the various BPD PIC preparations were measured. Although fluorescence is a photophysical property of the singlet excited state of a photosensitizer, fluorescence quantum yields and decay times generally correlate with a photosensitizer's ability to generate phototoxic species. This correlation stems from the fact that a photosensitizer's phototoxic quantum yield usually correlates with its triplet quantum yield. […]
Fluorescence properties were measured in 50% DMSO/50% aqueous solutions in order to overcome the tendency of BPD to aggregate in a purely aqueous solution. Relative fluorescence quantum yields for free BPD and for various PIC samples with varying BPD:antibody molar loading ratios were calculated from the ratios of the slopes of fluorescence emission intensity versus absorbance plots. The fluorescence emission intensity versus absorbance plot for a given sample was generated by measuring the emission intensities of a series of dilute solutions prepared from a concentrated stock solution of the sample. […] Fluorescence emission intensity was measured as the area under the fluorescence emission peak in the 650 to 800 nm range. […]

NIH:OVCAR-5 cells [5] = test: Tumoricidal response, intraperitoneal ovarian carcinoma xenograft, tumor burden at day 21; details: for Tumor Burden: necropsy day 21; for Survival Fraction: tumor burden relative to no treatment
Method: NIH:OVCAR-5 cells were obtained from the Fox Chase Cancer Institute (Philadelphia, Pa.). Cells were grown in RPMI-1640 media (Mediatech Inc, Herndon, Va.) supplemented with 10% heat-inactivated fetal calf serum (GIBCO Life Technologies, Grand Island, N.Y.), and 100 U/ml penicillin and 100 μg/ml streptomycin. The cells were maintained in an incubator at 37° C. in an atmosphere of 5% CO2. At the time of NIH:OVCAR-5 cell injection, mice were given a numeric ear tag. Animals were anesthetized before the cell injection with 0.03 ml of a ketamine/xylazine mixture (ketamine, 120 mg/kg; xylazine, 15 mg/kg).
Intraperitoneal (“i.p.”) PDT in the nude mice was performed as previously described (Molpus et al., 1996a). On day 10 and 20 after tumor cell injection, mice in BPD treatment and/or control groups 2, 4, 6, and 8 were injected with 0.25 mg/kg body weight of liposomal BPD-MA i.p. 90 minutes prior to light exposure. Light was not administered to animals in groups 1, 2, 5, and 6. BPD-MA solutions were prepared immediately prior to use in sterile PBS (total of 1 ml). All work involving BPD-MA was performed in subdued lighting.
Animals which had to be illuminated were injected with 2 mL of a 0.1% intralipid solution i.p. prior to illumination to enhance light scattering. Animals were anesthetized with 0.03 ml of a ketamine/xylazine mixture (ketamine, 35 mg/ml; xylazine, 5 mg/ml). A solid state diode laser was used for illumination (BWF 690-1, B&W TEK, Newark, Del.), which delivers monochromatic light (690+/−5 nm) to overlap closely the absorption maximum of BPD-MA (690 nm), at a maximum power from the diode of 1 W. Alternatively, an argon-pumped dye laser (Coherent) was used to deliver 690 nm light i.p. via a cylindrically diffusing fiberoptic tip (8.0 mm×0.4 mm). The fiber, connected to the Argon-pumped dye laser or the solid state diode laser was introduced into the peritoneal cavity of a supine anesthetized animal via a centrally placed 22-gauge catheter traversing the abdominal cavity. A total of 20 J of light was delivered, at a fluence rate of 100-200 mw/cm^2. Of the total light energy, one fourth (5 J) was delivered to each i.p. quadrant over equivalent time periods. At the completion of the treatment, the mice were allowed to recover in an animal warmer until they awoke and resumed normal activity.
Two endpoints were studied. The first endpoint studied was short-term tumor weight. The second endpoint studied was long-term survival. In the short-term tumor weight studies, animals were sacrificed on day 21 to assess acute treatment effects. Animals were also carefully examined for the presence of distinct extra-abdominal metastasis. Representative tissue samples were examined pathologically via hematoxylin and eosin staining.
Tumoricidal response was assessed by comparing the extent of gross residual disease in treated animals to the extent of disease in untreated controls. Using the distribution pattern of the tumor in the OVCAR-5 human xenograft mouse model, which 20 was previously described (Molpus et al., 1996b), the sites where tumor was consistently present were dissected.

EGFR = molecular target: T1, EGFR (Homo sapiens, UniProt P00533); test: EGF-induced EGFR phosphorylation, Western blot in OVCAR 5 cells; format: cell-based; details: 10 ng/ml EGF 15 min
T1 construct: endogenous in cells; host or cells: OVCAR 5 cells
Method: as §3

[6] = Solubility and stability in DMSO/aqueous solutions and on storage; format: physicochemical; details: DMSO/aqueous solution
Akt-1 = test: EGF-induced Akt-1 phosphorylation, Western blot in OVCAR-5 cells; format: cell-based, human
Method: as §3, §4

[7] = no light, BPD […] i.p. days 10, 20, C225 0.5 mg i.p. days 11, 14, 17, 19
[8] = with light (20 J, 690 nm i.p.), same doses

BPD Verteporfin
survival compared with untreated mice (NIH:OVCAR-5 cells [1]; comparison of survival curves, PDT and combination with light, C225 alone without): significantly longer survival rates | mice still alive after 6 months (180 days) (NIH:OVCAR-5 cells [1]; with light, 9 mice per group): 10% | 50% alive (NIH:OVCAR-5 cells [1]; with light, days on which 50% of the mice have died): 36 (CI 32-90) days | phototoxic cell killing [2]: greater than 90% | increase in MTT activity between the 24 and 72 hours time-point (OVCAR-5 cells): 15% | viability (CHO-ERBB2 cells): less than 20% | EGF-induced phosphorylation of MAPK/ERK (MAPK/ERK; alone, no light): responded like control cells | EGF-induced phosphorylation of MAPK/ERK (MAPK/ERK; plus light): did not have an inhibitory effect; also recorded: not by treatment with BPD plus light | Weight Loss In Grams [3, 7]: 2.01 Grams | Weight Loss In Grams [3, 8]: 2.14 Grams | weighted-average fluorescence decay lifetime ([4]; emission 700 nm): 6.02 ns | relative fluorescence quantum yield ([4]; excitation 428 nm): 1.00 | DL (NIH:OVCAR-5 cells [5]; Steel-Peckham interaction of the components in the formula, with light (hv)): 0.493 | Effect (NIH:OVCAR-5 cells [5]; Steel-Peckham interaction, with light (hv)): synergistic | lnSF (NIH:OVCAR-5 cells [5]; no light): −0.4084 | Tumor Burden (NIH:OVCAR-5 cells [5]; [7]): 469 mg | Survival Fraction (NIH:OVCAR-5 cells [5]; no light): 0.69 | lnSF (NIH:OVCAR-5 cells [5]; with light): −0.962 | Tumor Burden (NIH:OVCAR-5 cells [5]; [8]): 261 mg | tumor burden as % of the no treatment control group (NIH:OVCAR-5 cells [5]; with light, day 21): 38% | tumor burden in the bowel mesentery (NIH:OVCAR-5 cells [5]; with light, day 21): statistically significant reduction in tumor burden | Survival Fraction (NIH:OVCAR-5 cells [5]; with light): 0.38 | EGF-induced EGFR phosphorylation (EGFR; 140 nM alone, no light): reacted like control cells | EGF-induced EGFR phosphorylation (EGFR; 140 nM plus light): did not inhibit; also recorded: no inhibitory effect | DMSO content above which free BPD goes from predominantly aggregated to predominantly disaggregated monomeric state [6]: > 40% | EGF-induced phosphorylation of Akt-1 (Akt-1; alone, no light): responded like control cells | EGF-induced phosphorylation of Akt-1 (Akt-1; plus light): did not have an inhibitory effect; also recorded: not by treatment with BPD plus light
